In one test the target is T1, Rsm22 (Saccharomyces cerevisiae, UniProt P36056).
T1 construct: native yeast mtSSU assembly intermediates; untagged Rsm22 in Ccm1-purified states 1 and 2, C-terminal linker-TEV-alfa-3C-mCherry tag (cleaved) in state 3
T1 sequence (P36056 16-628): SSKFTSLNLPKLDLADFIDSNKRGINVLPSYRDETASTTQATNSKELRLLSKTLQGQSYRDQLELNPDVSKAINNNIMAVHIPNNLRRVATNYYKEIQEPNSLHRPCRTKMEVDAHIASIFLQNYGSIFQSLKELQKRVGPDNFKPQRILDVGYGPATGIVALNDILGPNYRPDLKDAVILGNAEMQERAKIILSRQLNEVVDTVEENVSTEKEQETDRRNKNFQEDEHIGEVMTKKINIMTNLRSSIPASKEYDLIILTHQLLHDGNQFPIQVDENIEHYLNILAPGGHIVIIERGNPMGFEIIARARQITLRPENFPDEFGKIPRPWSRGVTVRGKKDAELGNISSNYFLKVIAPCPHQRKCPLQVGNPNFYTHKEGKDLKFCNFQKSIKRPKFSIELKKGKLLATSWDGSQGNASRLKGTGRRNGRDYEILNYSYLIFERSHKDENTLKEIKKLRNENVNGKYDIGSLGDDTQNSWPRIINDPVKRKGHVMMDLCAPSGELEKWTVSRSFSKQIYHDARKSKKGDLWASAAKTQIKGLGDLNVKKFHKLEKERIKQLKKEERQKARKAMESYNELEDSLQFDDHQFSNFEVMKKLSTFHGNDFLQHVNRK
As to the kind of experiment: cryo-EM structure of native mtSSU assembly intermediates. In kind it is binding. The following applies: architectural cofactor; Rsm22 bound to pre-mtSSU.

The target in a further test is T2, METTL17 (Homo sapiens, UniProt Q9H7H0).
T2 construct: endogenous METTL17 with C-terminal linker-twinStrep-FLAG-10xHis-TEV-SPOT-3C-GFP tag, eluted with 3C protease
T2 sequence (Q9H7H0 28-456): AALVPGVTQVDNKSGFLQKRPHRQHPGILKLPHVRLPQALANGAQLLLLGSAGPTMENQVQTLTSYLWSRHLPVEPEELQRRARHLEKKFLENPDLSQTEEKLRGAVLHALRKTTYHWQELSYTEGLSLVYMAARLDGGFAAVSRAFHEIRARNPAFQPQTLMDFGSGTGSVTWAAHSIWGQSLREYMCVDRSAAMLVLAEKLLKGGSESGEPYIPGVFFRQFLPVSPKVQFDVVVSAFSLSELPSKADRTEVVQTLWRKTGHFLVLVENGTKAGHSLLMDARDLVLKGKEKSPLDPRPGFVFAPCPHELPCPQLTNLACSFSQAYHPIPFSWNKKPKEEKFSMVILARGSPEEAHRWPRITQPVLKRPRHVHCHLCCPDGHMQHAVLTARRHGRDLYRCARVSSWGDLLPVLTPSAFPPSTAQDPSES
The description is as above. In kind it is binding. The following applies: architectural cofactor; METTL17 bound to pre-mtSSU.

For the compound `[S]12[Fe]3[S]4[Fe]1[S]1[Fe]2[S]3[Fe]41` [Fe4S4 cluster], the “cryo-EM structure of native mtSSU assembly intermediates” value on Rsm22 and on METTL17 was “identified an Fe4S4 cluster as an architectural cofactor of the Rsm22 (METTL17) protein family” throughout.
